Experimental data taken from patent publication US20260166021A1, “POLYMORPHIC FORMS OF A SOLUBLE EPOXIDE HYDROLASE INHIBITOR AND FORMULATIONS THEREOF” (EicOsis, LLC, priority 2022, published 2026).
In brackets after ≈: the same amount, converted by molar mass. Several values for one entry are separate records, joined by “and”; a condition that tells them apart may be missing. Equal values may be shown once. Marks after values point to notes of the source that are not given here.

Columns and labels:
Type in all cases: physicochemical
[1] = Supersaturation monitoring in PEG 300; details: PEG 300 (0.5 mL)
[2] = Thermal gravimetric analysis (TGA); details: below 150° C.
Procedure: Thermal gravimetric analyses were performed on each sample “as is.” Unless otherwise noted, samples were weighed in an alumina crucible and analyzed from 30-350° C. at 10° C./min.
Form C weight loss at 39° C.-50° C. likely reflected methanol loss.

[3] = Thermal stress studies at 60° C. (XRD, HPLC); details: HPLC
Procedure: Briefly, 20 mg of solid Form A, B, C, D, E, F, G, and I were weighed into 7 mL glass vials. The vials were covered with tissue and stored in ovens set to 60° C. and ambient pressure. Following 1 and 7 days incubation, solid was collected for XRD analysis.
As shown in these figures, Forms B and C converted to Forms D and A, respectively, while the other forms remained unchanged.
The starting materials, intermediates (1 day of thermal stress), and products (7 days of thermal stress) were analyzed by H PLC. Representative chromatograms from the Form D thermal stress analyses are shown in FIGS. 81-83 (starting material, 1 day, and 7 day samples, respectively).

[4] = Equilibrium-solubility screening in solvents and excipients; details: for solubility thermodynamic at 24 h: thermodynamic from solid
Procedure: For these analyses, Form D or Form C was mixed with 0.5 or 1.0 mL of solvents and equilibrated for approximately 24 hours. The mixture was filtered through 0.45 μm centrifuge filters.
As expected, the compound was not easily ionized at physiologically relevant pH. […] In addition, these excipients included surfactants, co-solvents, and lipids which are amenable for use in self-emulsifying drug delivery systems (SEDDS). The XRD pattern of the starting material was maintained for each sample after equilibrium.

[5] = Capmul MCM, (medium name cut off)
[6] = Castor Oil, (medium name cut off)

CC[C@H](C)C(=O)N1CCC(NC(=O)Nc2ccc(OC(F)(F)F)c(F)c2)CC1 [Form D, (S)-1-(3-fluoro-4-(trifluoromethoxy)phenyl)-3-(1-(2-methylbutanoyl)piperidin-4-yl)urea]
Step → Observation ([1]; 100 mg/mL, 1. RT stirring for 1 hr, listed as Pattern D): 1. RT stirring for 1 hr → suspension | Step → Observation ([1]; 100 mg/mL, 2. 40 C. heating for 0.5 hr, listed as Pattern D): 2. 40 C. heating for 0.5 hr → clear solution | Step → Observation ([1]; 100 mg/mL, 3. RT storage for ~8 days, listed as Pattern D): 3. RT storage for ~8 days → clear solution | Step → Observation ([1]; 100 mg/mL, 4. RT storage for ~9 days, listed as Pattern D): 4. RT storage for ~9 days → precipitation | Step → Observation ([1]; 200 mg/mL, 1. RT stirring for 1 hr): 1. RT stirring for 1 hr →suspension | Step → Observation ([1]; 200 mg/mL, 2. 40 C. heating for 48 hr, listed as Pattern D): 2. 40 C. heating for 48 hr →suspension | Step → Observation ([1]; 200 mg/mL, 3. 55 C. heating for <16 hr): 3. 55 C. heating for <16 hr →clear solution | Step → Observation ([1]; 200 mg/mL, 4. RT storage for <3.5 days): 4. RT storage for <3.5 days →precipitation | Step → Observation ([1]; 200 mg/mL, 5. 55 C. reheating for overnight): 5. 55 C. reheating for overnight →clear solution | Step → Observation ([1]; 200 mg/mL, 6. RT storage for overnight): 6. RT storage for overnight →precipitation | TGA: wt change [2]: No wt change below | Day 1 % AUC ([3]; 60° C.): 100% | Day 7 % AUC ([3]; 60° C.): 100% | Initial % AUC ([3]; before thermal stress): 100% | Equilibrium Solubility ([4]; Campul MCM): 56.2 mg/mL | XRD Pattern At Equilibrium ([4]; Campul MCM): Form D | XRD Pattern At Equilibrium ([4]; Canola Oil): Form D | solubility thermodynamic at 24 h ([4]; Canola Oil, oil or lipid): < 100 µg/mL | Equilibrium Solubility [4, 5]: 24.5 mg/mL | XRD Pattern At Equilibrium [4, 5]: Form D | Equilibrium Solubility ([4]; Captex 355): 2.0 mg/mL | XRD Pattern At Equilibrium ([4]; Captex 355): Form D | Equilibrium Solubility ([4]; Castor Oil): 5.5 mg/mL | XRD Pattern At Equilibrium ([4]; Castor Oil): Form D | Equilibrium Solubility [4, 6]: 42.6** mg/mL | XRD Pattern At Equilibrium [4, 6]: Form D | XRD Pattern At Equilibrium ([4]; Corn Oil): Form D | solubility thermodynamic at 24 h ([4]; Corn Oil, oil or lipid): < 100 µg/mL | XRD Pattern At Equilibrium ([4]; DI water): Form C (minor | XRD Pattern At Equilibrium, minor form ([4]; DI water): Form D) | solubility thermodynamic at 24 h ([4]; DI water, water, approximately 24 hours): < 100 µg/mL | Equilibrium Solubility ([4]; FaSSIF): 0.2 mg/mL | XRD Pattern At Equilibrium ([4]; FaSSIF): Form D | solubility thermodynamic at 24 h ([4]; FaSSIF): < 100 µg/mL | Equilibrium Solubility ([4]; Gelucire 44/14): 37.7** mg/mL | XRD Pattern At Equilibrium ([4]; Gelucire 44/14): Form D | XRD Pattern At Equilibrium ([4]; Glycerol): Form D | solubility thermodynamic at 24 h ([4]; Glycerol, organic solvent or mixture): < 100 µg/mL | Equilibrium Solubility ([4]; Intralipid): 0.1 mg/mL | XRD Pattern At Equilibrium ([4]; Intralipid): Form D | Equilibrium Solubility ([4]; Kolliphor): 1.4 mg/mL | XRD Pattern At Equilibrium ([4]; Kolliphor): Form D | Equilibrium Solubility ([4]; Kolliphor EL): 20.4 mg/mL | XRD Pattern At Equilibrium ([4]; Kolliphor EL): Form D | Equilibrium Solubility ([4]; Kolliphor HS-): 37.3** mg/mL | XRD Pattern At Equilibrium ([4]; Kolliphor HS-): Form D | Equilibrium Solubility ([4]; Labrafil): 9.6 mg/mL | XRD Pattern At Equilibrium ([4]; Labrafil): Form D | Equilibrium Solubility ([4]; Labrasol): 21.8 mg/mL | XRD Pattern At Equilibrium ([4]; Labrasol): Form D | Equilibrium Solubility ([4]; Miglyol 810): 2.0 mg/mL | XRD Pattern At Equilibrium ([4]; Miglyol 810): Form D | Equilibrium Solubility ([4]; Miglyol 812): 1.9 mg/mL | XRD Pattern At Equilibrium ([4]; Miglyol 812): Form D | solubility thermodynamic at 24 h ([4]; NaOH solution, pH 10.0, pH 10, aqueous buffer, pH 10.0 NaOH): < 100 µg/mL | Equilibrium Solubility ([4]; Oleic Acid): 9.0 mg/mL | XRD Pattern At Equilibrium ([4]; Oleic Acid): Form D | Equilibrium Solubility ([4]; PEG 300, 50%): 0.4 mg/mL and 0.5 mg/mL | XRD Pattern At Equilibrium ([4]; PEG 300, 50%): Form D | XRD Pattern At Equilibrium ([4]; PEG 300, 100%): Form D | XRD Pattern At Equilibrium ([4]; PEG 400, 50%): Form D | solubility thermodynamic at 24 h ([4]; PEG 400, 50%, aqueous with cosolvent or surfactant or cyclodextrin): 900 µg/mL (≈ 2220 µM) | Equilibrium Solubility ([4]; PEG 400, 100%): 17.0 mg/mL | XRD Pattern At Equilibrium ([4]; PEG 400, 100%): Form D | solubility thermodynamic at 24 h ([4]; PEG 400, 100%, organic solvent or mixture): 20100 µg/mL (≈ 49600 µM) | Equilibrium Solubility ([4]; Peceol): 12.9 mg/mL | XRD Pattern At Equilibrium ([4]; Peceol): Form D | Equilibrium Solubility ([4]; Plurol Oleique): 8.7 mg/mL | XRD Pattern At Equilibrium ([4]; Plurol Oleique): Form D | Equilibrium Solubility ([4]; Propylene): 24.1 mg/mL | XRD Pattern At Equilibrium ([4]; Propylene): Form D | XRD Pattern At Equilibrium ([4]; SLS, 1x CMC): Form C | solubility thermodynamic at 24 h ([4]; SLS, 1x CMC, aqueous with cosolvent or surfactant or cyclodextrin): < 100 µg/mL | Equilibrium Solubility ([4]; SLS, 5x CMC): 1.2 mg/mL | XRD Pattern At Equilibrium ([4]; SLS, 5x CMC): Form C | Equilibrium Solubility ([4]; SLS, 10x CMC): 1.5 mg/mL | XRD Pattern At Equilibrium ([4]; SLS, 10x CMC): Form C | Equilibrium Solubility ([4]; SLS, 100x CMC): 2.5 mg/mL | XRD Pattern At Equilibrium ([4]; SLS, 100x CMC): Form C
